# Patent US20240335462A1, “SULFUR/PHOSPHORUS-CONTAINING ARYL COMPOUND AND APPLICATION THEREOF” (MEDSHINE DISCOVERY INC., priority 2021, published 2024)
# Assays:
# [1] = tested on: acute colitis induced by CD40 antibody; assay: Mouse model of acute colitis induced by CD40 antibody; type: in vivo, CB-17 SCID mice; design: DAI score: scale not given here; conditions: mean
# Experimental: The purpose of this experiment was to evaluate the alleviating effect of the compound on colitis in a mouse model induced by CD40 antibody.
# CB-17 SCID mice were randomly divided into groups. Each group consisted of 6 mice, which received an intraperitoneal injection (IP) of CD40 antibody (80 μg per mouse) on Day 0. The positive control drug IL-12 P40 antibody and the test compound were administered from Day-1 to Day 4, with Day 5 being the endpoint of the experiment. The positive control drug IL-12 P40 antibody was administered via intraperitoneal injection (IP) once every three days; the test compound was administered by gavage (PO) twice a day (BID).
# The compounds were all prepared into a clear solution with 10% DMSO+10% solutol+80% (10% HP-3-CD) as a solvent for PO (oral gavage) administration. Administration volume parameters: 10 mL/kg based on the body weight of the mice.
# IL-12 P40 antibody and the test compound were administered from Day-1 to Day 4. On Day 0, 30 minutes after administration, 200 μL of CD40 antibody (4 mg/kg) was intraperitoneally injected, while mice in the blank control group were intraperitoneally injected with 200 μL of DPBS. Body weight was recorded and feces were scored during the experiment.
# Fecal scoring involved placing each mouse individually in a specially designed cage for about 10 minutes for scoring. The fecal scoring criteria were as per Table 27.
# If blood is observed in the feces or around the anus, occult blood testing is not conducted. For the remaining mice without visible bloody stools, feces are collected for occult blood testing. Occult blood scoring is based on the assumption that the daily test results for the mice in the Normal group are 0. Each day, the fecal samples of four mice from the blank control group are observed for the time taken to develop color on the occult blood test strips. The shortest time required for color development in the feces of these four mice is set as the daily threshold. If the feces develop color before this time point and the color intensifies within 1 to 2 minutes, a score of 2 is assigned.
# The body weight and Disease Activity Index (DAI) scores of the animals were recorded daily to assess the disease progression in each group and the effect of the test compound on the disease. The daily Disease Activity Index (DAI) score consists of three parts, with specific criteria referenced in Table 27.
# [2] = tested on: JAK1/3 signaling pathway (IL-2/pSTAT5); assay: IL-2-stimulated pSTAT5 in human PBMC (flow cytometry); type: cell-based; conditions: CD4-positive cells
# Experimental: The purpose of this experiment was to detect the inhibitory effect of the compounds on cytokine-activated JAK-STAT signaling pathways in human peripheral blood mononuclear cells (PBMC).
# • a) PBMCs frozen in liquid nitrogen were thawed in a 37° C. water bath, and culture medium was added. The mixture was then centrifuged at 320 g for 3 minutes. • b) Cells were resuspended in culture medium, counted, and the cell concentration was adjusted to 5×10^5 cells/mL with culture medium. Subsequently, the cell suspension was inoculated into […] 96-well round-bottom plates, with 200 μL per well. The plates were incubated at 37° C. with 5% CO2 for 90 minutes. • c) Different concentrations of the test compound (starting at 2 μM, 5-fold serial dilution, a total of 8 concentrations) were added, followed by incubation at 37° C. with 5% CO2 for 30 minutes. • d) IL-6 (final concentration at 20 ng/mL) was added to the first round-bottom plate and incubated at 37° C. with 5% CO2 for 15 minutes. • e) IFNα (final concentration at 1000 U/mL) was added to the second round-bottom plate and incubated at 37° C. with 5% CO2 for 15 minutes. • f) IL-2 (final concentration at 4 ng/mL) was added to the third round-bottom plate and incubated at 37° C. with 5% CO2 for 15 minutes. • g) GM-CSF (final concentration at […]) was added to the fourth round-bottom plate and incubated at 37° C. with 5% CO2 for 15 minutes. • h) Cells were centrifuged at 320 g for 3 minutes, and each well was washed once with 200 μL of staining solution. • i) 50 μL of staining solution containing human CD33 antibody was added to each well of the GM-CSF-stimulated culture plate, and 50 μL of staining solution containing CD4 antibody was added to the remaining three culture plates. The staining was performed at 4° C. for 30 minutes. The cells were washed twice with the staining solution. • j) 100 μL of fixation buffer was added to each well, and the cells were fixed at 4° C. for 15 minutes. The cells were washed once with the staining solution. • k) 100 μL of permeabilization buffer was added to each well, and the cells were permeabilized at 4° C. for 20 minutes. The cells were washed twice with the staining solution. • l) 50 μL of staining solution containing human pSTAT1 antibody was added to each well of the IL-6 and IFN-α-stimulated culture plates, and 50 μL of staining solution containing human pSTAT5 antibody was added to each well of the IL-2 and GM-CSF-stimulated culture plates. The staining was performed at room temperature for 15 minutes. The cells were washed twice with the staining solution. • m) The cells were resuspended in 150 μL of staining solution. • n) The fluorescence intensity of pSTAT1 (stimulated by IL-6 and IFN-α) or pSTAT5 (stimulated by IL-2) in CD4-positive cells was detected using flow cytometer. The fluorescence intensity of pSTAT5 (stimulated by GM-CSF) in CD33-positive cells was also detected.
# Data analysis was performed using Flowjo software to determine the IC50 of the compounds.
smiles,measurement,setting,value
CNC(=O)c1cnc(NC(=O)C2CC2)cc1Nc1cccc(-c2ccc(S(=O)(=O)C(C)C)cn2)c1OC.O=S(=O)(O)O [Sulfate of WX-020],DAI score,"[1]; 50 mg/kg PO BID, Day 0",0.33
same,Weight change rate (%),"[1]; 50 mg/kg PO BID, Day 0",100.48%
same,DAI score,"[1]; 50 mg/kg PO BID, Day 1",1.17
same,Weight change rate (%),"[1]; 50 mg/kg PO BID, Day 1",98.37%
same,DAI score,"[1]; 50 mg/kg PO BID, Day 2",2.67
same,Weight change rate (%),"[1]; 50 mg/kg PO BID, Day 2",95.22%
same,DAI score,"[1]; 50 mg/kg PO BID, Day 3",0.83
same,Weight change rate (%),"[1]; 50 mg/kg PO BID, Day 3",100.73%
same,DAI score,"[1]; 50 mg/kg PO BID, Day 4",0.33
same,Weight change rate (%),"[1]; 50 mg/kg PO BID, Day 4",100.81%
same,DAI score,"[1]; 50 mg/kg PO BID, Day 5",0.50
same,Weight change rate (%),"[1]; 50 mg/kg PO BID, Day 5",100.44%
same,DAI score,"[1]; 50 mg/kg PO BID, Day -1",0.00
same,Weight change rate (%),"[1]; 50 mg/kg PO BID, Day -1",100.00%
same,DAI score,"[1]; 100 mg/kg PO BID, Day 0",0.33
same,Weight change rate (%),"[1]; 100 mg/kg PO BID, Day 0",100.78%
same,DAI score,"[1]; 100 mg/kg PO BID, Day 1",1.33
same,Weight change rate (%),"[1]; 100 mg/kg PO BID, Day 1",99.88%
same,DAI score,"[1]; 100 mg/kg PO BID, Day 2",1.67
same,Weight change rate (%),"[1]; 100 mg/kg PO BID, Day 2",97.14%
same,DAI score,"[1]; 100 mg/kg PO BID, Day 3",0.50
same,Weight change rate (%),"[1]; 100 mg/kg PO BID, Day 3",99.65%
same,DAI score,"[1]; 100 mg/kg PO BID, Day 4",0.33
same,Weight change rate (%),"[1]; 100 mg/kg PO BID, Day 4",101.16%
same,DAI score,"[1]; 100 mg/kg PO BID, Day 5",0.33
same,Weight change rate (%),"[1]; 100 mg/kg PO BID, Day 5",100.90%
same,DAI score,"[1]; 100 mg/kg PO BID, Day -1",0.00
same,Weight change rate (%),"[1]; 100 mg/kg PO BID, Day -1",100.00%
CNC(=O)c1cnc(NC(=O)C2CC2)cc1Nc1cccc(-c2ccc(S(=O)(=O)C(C)C)cn2)c1OC.Cl [Hydrochloride of WX-020],IC50,[2],1400 nM
"CNC(=O)c1nnc(NC(=O)C2CC2)cc1Nc1cccc(-c2ncc(S(=N)(=O)C(C)C)cn2)c1OC (single isomer, unassigned) [WX-011A]",IC50,[2],1310 nM
"CNC(=O)c1nnc(NC(=O)C2CC2)cc1Nc1cccc(-c2ncc(S(=N)(=O)C(C)C)cn2)c1OC.Cl (single isomer, unassigned) [Hydrochloride of WX-011A]",DAI score,"[1]; 30 mg/kg PO BID, Day 0",0.17
same,Weight change rate (%),"[1]; 30 mg/kg PO BID, Day 0",100.60%
same,DAI score,"[1]; 30 mg/kg PO BID, Day 1",1.00
same,Weight change rate (%),"[1]; 30 mg/kg PO BID, Day 1",100.01%
same,DAI score,"[1]; 30 mg/kg PO BID, Day 2",2.17
same,Weight change rate (%),"[1]; 30 mg/kg PO BID, Day 2",95.93%
same,DAI score,"[1]; 30 mg/kg PO BID, Day 3",0.83
same,Weight change rate (%),"[1]; 30 mg/kg PO BID, Day 3",98.85%
same,DAI score,"[1]; 30 mg/kg PO BID, Day 4",0.50
same,Weight change rate (%),"[1]; 30 mg/kg PO BID, Day 4",99.69%
same,DAI score,"[1]; 30 mg/kg PO BID, Day 5",1.00
same,Weight change rate (%),"[1]; 30 mg/kg PO BID, Day 5",97.07%
same,DAI score,"[1]; 30 mg/kg PO BID, Day -1",0.00
same,Weight change rate (%),"[1]; 30 mg/kg PO BID, Day -1",100.00%
same,DAI score,"[1]; 50 mg/kg PO BID, Day 0",0.33
same,Weight change rate (%),"[1]; 50 mg/kg PO BID, Day 0",100.63%
same,DAI score,"[1]; 50 mg/kg PO BID, Day 1",1.00
same,Weight change rate (%),"[1]; 50 mg/kg PO BID, Day 1",99.54%
same,DAI score,"[1]; 50 mg/kg PO BID, Day 2",1.83
same,Weight change rate (%),"[1]; 50 mg/kg PO BID, Day 2",97.69%
same,DAI score,"[1]; 50 mg/kg PO BID, Day 3",0.67
same,Weight change rate (%),"[1]; 50 mg/kg PO BID, Day 3",100.43%
same,DAI score,"[1]; 50 mg/kg PO BID, Day 4",0.50
same,Weight change rate (%),"[1]; 50 mg/kg PO BID, Day 4",100.96%
same,DAI score,"[1]; 50 mg/kg PO BID, Day 5",1.17
same,Weight change rate (%),"[1]; 50 mg/kg PO BID, Day 5",99.34%
same,DAI score,"[1]; 50 mg/kg PO BID, Day -1",0.00
same,Weight change rate (%),"[1]; 50 mg/kg PO BID, Day -1",100.00%
CNC(=O)c1cnc(NC(=O)C2CC2)cc1Nc1cccc(-c2ncc(S(=O)(=O)C(C)C)cn2)c1OC [WX-019],IC50,[2],1580 nM
CNC(=O)c1nnc(NC(=O)C2CC2)cc1Nc1cccc(-c2ccc(P(=O)(C3CC3)C3CC3)cn2)c1OC [WX-021],IC50,[2],540 nM
"CNC(=O)c1nnc(NC(=O)C2CC2)cc1Nc1cccc(-c2ncc(S(=N)(=O)C(C)C)cn2)c1OC (single isomer, unassigned) [WX-011B]",IC50,[2],773 nM
